{"source": "paper PMC10284832", "about": "“Cyclic di-AMP traps proton-coupled K^+ transporters of the KUP family in an inward-occluded conformation” (Nature Communications, 2023)", "key": {"[1]": {"biological_target": "T1, KimA (Bacillus subtilis, UniProt P96589)", "T1 construct": "full-length membrane protein, homodimer with swapped cytosolic domains; plasmid pB24KimA, expressed in E. coli LB2003", "T1 sequence (P96589 1-607)": "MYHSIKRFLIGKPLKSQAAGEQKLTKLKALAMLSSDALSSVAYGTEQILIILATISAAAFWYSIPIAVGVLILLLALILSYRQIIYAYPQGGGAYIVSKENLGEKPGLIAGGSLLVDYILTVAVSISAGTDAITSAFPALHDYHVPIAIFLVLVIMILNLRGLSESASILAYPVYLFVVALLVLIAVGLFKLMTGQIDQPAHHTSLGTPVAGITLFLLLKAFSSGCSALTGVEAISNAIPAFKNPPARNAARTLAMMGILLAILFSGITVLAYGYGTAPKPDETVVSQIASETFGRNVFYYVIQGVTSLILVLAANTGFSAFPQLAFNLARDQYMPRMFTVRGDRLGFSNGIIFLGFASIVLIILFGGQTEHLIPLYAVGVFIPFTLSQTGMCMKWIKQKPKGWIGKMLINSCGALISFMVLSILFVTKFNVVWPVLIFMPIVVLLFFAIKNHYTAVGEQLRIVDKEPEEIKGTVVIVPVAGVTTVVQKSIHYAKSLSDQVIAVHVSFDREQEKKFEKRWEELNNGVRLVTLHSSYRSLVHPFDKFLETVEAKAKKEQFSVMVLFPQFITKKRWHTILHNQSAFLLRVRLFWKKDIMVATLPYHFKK", "assay": "cryo-EM structure ([…] Å in DDM, […] Å in amphipols)", "type": "binding", "settings": "two c-di-AMP per dimer, cytosolic domain sites; co-produced with CdaA; ten-fold molar excess added in DDM"}, "[2]": {"biological_target": "T2, KimA (Bacillus subtilis, UniProt P96589, R337A)", "T2 construct": "full-length membrane protein, homodimer with swapped cytosolic domains; plasmid pB24KimA, expressed in E. coli LB2003", "T2 sequence (P96589 whole entry R337A, the tested form may be a part)": "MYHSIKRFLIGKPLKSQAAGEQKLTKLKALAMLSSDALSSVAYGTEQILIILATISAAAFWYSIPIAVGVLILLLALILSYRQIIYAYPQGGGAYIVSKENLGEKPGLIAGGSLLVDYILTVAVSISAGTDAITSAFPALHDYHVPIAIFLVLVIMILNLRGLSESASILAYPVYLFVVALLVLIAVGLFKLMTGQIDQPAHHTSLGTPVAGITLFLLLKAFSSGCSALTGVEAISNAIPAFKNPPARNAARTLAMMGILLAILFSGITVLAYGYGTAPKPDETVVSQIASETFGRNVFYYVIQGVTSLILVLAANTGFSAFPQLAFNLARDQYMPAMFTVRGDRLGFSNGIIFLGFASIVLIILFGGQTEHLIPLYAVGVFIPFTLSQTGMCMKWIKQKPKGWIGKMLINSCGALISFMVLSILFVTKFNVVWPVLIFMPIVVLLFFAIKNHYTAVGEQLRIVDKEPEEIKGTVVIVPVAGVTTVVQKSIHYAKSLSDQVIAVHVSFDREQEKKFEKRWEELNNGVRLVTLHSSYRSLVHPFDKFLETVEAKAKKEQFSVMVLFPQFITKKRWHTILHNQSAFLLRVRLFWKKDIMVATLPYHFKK", "assay": "whole-cell K+ uptake in E. coli LB2003 (flame AAS)", "type": "cell-based", "settings": "c-di-AMP made in the cells by co-expressed CdaA (concentration unknown) versus inactive CdaA D171N; 200 mM HEPES TEA pH 7.5; allosteric site in cytosolic domain"}, "[3]": {"biological_target": "T1, KimA", "assay": "whole-cell K+ uptake in E. coli LB2003 (flame AAS)", "type": "cell-based", "settings": "c-di-AMP made in the cells by co-expressed CdaA (concentration unknown) versus inactive CdaA D171N; 200 mM HEPES TEA pH 7.5; allosteric site in cytosolic domain"}, "[4]": {"biological_target": "T3, KimA (Bacillus subtilis, UniProt P96589, N237A)", "T3 construct": "full-length membrane protein, homodimer with swapped cytosolic domains; plasmid pB24KimA, expressed in E. coli LB2003", "T3 sequence (P96589 whole entry N237A, the tested form may be a part)": "as the sequence (P96589 whole entry R337A, the tested form may be a part) above, with N237A, A337R counted along it", "assay": "differential scanning fluorometry (CPM dye)", "settings": "c-di-AMP binding to variant; method inferred from the DSF section"}, "[5]": {"biological_target": "T1, KimA", "assay": "differential scanning fluorometry (CPM dye)", "type": "binding", "settings": "three-fold molar excess c-di-AMP over KimA; KimA purified from cells co-producing CdaA, in DDM; shift fits 48.1 °C (KimA without CdaA) to 54.7 °C; text calls it a further increase although the CdaA sa"}, "[6]": {"biological_target": "the molecule itself", "assay": "cryo-EM structure; KimA in DDM at 4.0 mg/ml, purified after co-production with CdaA, ten-fold molar excess of c-di-AMP added after purification; 3.3 Å map with C2 symmetry"}, "[7]": {"biological_target": "the molecule itself", "assay": "cryo-EM structure; KimA reconstituted in amphipols (PMAL C8) at 2.25 mg/ml, purified after co-expression with cdaA; 50 mM NaCl, 50 mM KCl, 20 mM Tris-HCl pH 8; 3.8 Å map with C2 symmetry"}}}
{"molecule": "Nc1ncnc2c1ncn2[C@@H]1O[C@@H]2COP(=O)(O)O[C@H]3[C@@H](O)[C@H](n4cnc5c(N)ncnc54)O[C@@H]3COP(=O)(O)O[C@H]2[C@H]1O", "note": "[c-di-AMP]", "values": [{"measurement": "cryo-EM structure (3.3 Å in DDM, 3.8 Å in amphipols)", "setting": "[1]", "value": "two non-protein densities in the CDs, which were modelled as c-di-AMP"}, {"measurement": "% reduction of Vmax", "setting": "[2]", "value": "~ 44%"}, {"measurement": "% reduction of Vmax", "setting": "[3]", "value": "~ 64%"}, {"measurement": "Tm", "setting": "[4]", "value": "while binding of c-di-AMP was still possible"}, {"measurement": "dTm", "setting": "[5]", "value": 6.6, "unit": "°C"}]}
{"molecule": "K+/H+ symporter KimA from B. subtilis, in DDM, with bound c-di-AMP (natural protein, KimA, K+/H+ symporter of the KUP family, Bacillus subtilis; expressed from pB24KimA; residues 30-606 are compared in the structures (TMD 30-462, cytosolic domain 462-606); Homodimer with swapped cytosolic domains; A ten-fold molar excess of c-di-AMP was added after purification; The construct has a C-terminal HRV-3C protease site; No cleavage is described for the DDM sample; also called KimA WT; …) MYHSIKRFLIGKPLKSQAAGEQKLTKLKALAMLSSDALSSVAYGTEQILIILATISAAAFWYSIPIAVGVLILLLALILSYRQIIYAYPQGGGAYIVSKENLGEKPGLIAGGSLLVDYILTVAVSISAGTDAITSAFPALHDYHVPIAIFLVLVIMILNLRGLSESASILAYPVYLFVVALLVLIAVGLFKLMTGQIDQPAHHTSLGTPVAGITLFLLLKAFSSGCSALTGVEAISNAIPAFKNPPARNAARTLAMMGILLAILFSGITVLAYGYGTAPKPDETVVSQIASETFGRNVFYYVIQGVTSLILVLAANTGFSAFPQLAFNLARDQYMPRMFTVRGDRLGFSNGIIFLGFASIVLIILFGGQTEHLIPLYAVGVFIPFTLSQTGMCMKWIKQKPKGWIGKMLINSCGALISFMVLSILFVTKFNVVWPVLIFMPIVVLLFFAIKNHYTAVGEQLRIVDKEPEEIKGTVVIVPVAGVTTVVQKSIHYAKSLSDQVIAVHVSFDREQEKKFEKRWEELNNGVRLVTLHSSYRSLVHPFDKFLETVEAKAKKEQFSVMVLFPQFITKKRWHTILHNQSAFLLRVRLFWKKDIMVATLPYHFKK", "values": [{"measurement": "binding result", "setting": "[6]", "value": "binds"}]}
{"molecule": "K+/H+ symporter KimA from B. subtilis, reconstituted in amphipols, with bound c-di-AMP (natural protein, KimA, K+/H+ symporter of the KUP family, Bacillus subtilis; expressed from pB24KimA; released from the Ni-NTA beads by cleavage at the C-terminal HRV-3C protease site; Homodimer with swapped cytosolic domains, upright arrangement of the transmembrane domains; Residues of the 3C site probably remain at the C-terminus after cleavage; also called KimA in amphipols; not shown: His tag (from the …)) MYHSIKRFLIGKPLKSQAAGEQKLTKLKALAMLSSDALSSVAYGTEQILIILATISAAAFWYSIPIAVGVLILLLALILSYRQIIYAYPQGGGAYIVSKENLGEKPGLIAGGSLLVDYILTVAVSISAGTDAITSAFPALHDYHVPIAIFLVLVIMILNLRGLSESASILAYPVYLFVVALLVLIAVGLFKLMTGQIDQPAHHTSLGTPVAGITLFLLLKAFSSGCSALTGVEAISNAIPAFKNPPARNAARTLAMMGILLAILFSGITVLAYGYGTAPKPDETVVSQIASETFGRNVFYYVIQGVTSLILVLAANTGFSAFPQLAFNLARDQYMPRMFTVRGDRLGFSNGIIFLGFASIVLIILFGGQTEHLIPLYAVGVFIPFTLSQTGMCMKWIKQKPKGWIGKMLINSCGALISFMVLSILFVTKFNVVWPVLIFMPIVVLLFFAIKNHYTAVGEQLRIVDKEPEEIKGTVVIVPVAGVTTVVQKSIHYAKSLSDQVIAVHVSFDREQEKKFEKRWEELNNGVRLVTLHSSYRSLVHPFDKFLETVEAKAKKEQFSVMVLFPQFITKKRWHTILHNQSAFLLRVRLFWKKDIMVATLPYHFKK", "values": [{"measurement": "binding result", "setting": "[7]", "value": "binds"}]}
